Assay results taken from PubChem BioAssay AID248 (DTP/NCI, 2004).
Values joined by “and” are separate entries in the source; they are usually repeats but may differ in a detail not shown here. Equal entries are not always repeated. Toxic doses and inconclusive results are not listed. No stated cut-off is given here; in the data, active means T/C of 150% or more; inactive means T/C below 125%.

Test system: L1210 leukemia ip in BDF1 mice, survival T/C
Test: NCI In Vivo Anticancer Drug Screen. Data for tumor model L1210 Leukemia (intraperitoneal) in B6D2F1 (BDF1) mice
Settings: endpoint: mean survival time, higher = longer survival
Outline: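 Tumor cells were implanted, animals were treated, and survival was followed. The result divides the treated measurement by the vehicle-control measurement.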

[1] = dose: 100.0 mg/kg/injection, schedule: Q01DX009 (ip), vehicle: saline
[2] = dose: 100.0 mg/kg/injection, schedule: Q04DX003 (ip), vehicle: saline
[3] = dose: 200.0 mg/kg/injection, schedule: Q04DX003 (ip), vehicle: saline
[4] = dose: 400.0 mg/kg/injection, schedule: Q04DX003 (ip), vehicle: saline
[5] = dose: 200.0 mg/kg/injection, schedule: Q01DX001 (ip), vehicle: Klucel (hydroxypropylcellulose) (HPC)
[6] = dose: 100.0 mg/kg/injection, schedule: Q01DX001 (ip), vehicle: saline
[7] = dose: 200.0 mg/kg/injection, schedule: Q01DX001 (ip), vehicle: saline
[8] = dose: 400.0 mg/kg/injection, schedule: Q01DX001 (ip), vehicle: saline
[9] = dose: 50.0 mg/kg/injection, schedule: Q01DX001 (ip), vehicle: saline
[10] = dose: 12.5 mg/kg/injection, schedule: Q04DX003 (ip), vehicle: saline
[11] = dose: 25.0 mg/kg/injection, schedule: Q04DX003 (ip), vehicle: saline
[12] = dose: 50.0 mg/kg/injection, schedule: Q04DX003 (ip), vehicle: saline
[13] = dose: 100.0 mg/kg/injection, schedule: Q01DX009 (ip), vehicle: Klucel (hydroxypropylcellulose) (HPC)
[14] = dose: 100.0 mg/kg/injection, schedule: Q04DX003 (ip), vehicle: Klucel (hydroxypropylcellulose) (HPC)
[15] = dose: 200.0 mg/kg/injection, schedule: Q01DX009 (ip), vehicle: Klucel (hydroxypropylcellulose) (HPC)
[16] = dose: 200.0 mg/kg/injection, schedule: Q04DX003 (ip), vehicle: Klucel (hydroxypropylcellulose) (HPC)
[17] = dose: 400.0 mg/kg/injection, schedule: Q01DX009 (ip), vehicle: Klucel (hydroxypropylcellulose) (HPC)
[18] = dose: 400.0 mg/kg/injection, schedule: Q04DX003 (ip), vehicle: Klucel (hydroxypropylcellulose) (HPC)
[19] = dose: 25.0 mg/kg/injection, schedule: Q04DX003 (ip), vehicle: Klucel (hydroxypropylcellulose) (HPC)
[20] = dose: 50.0 mg/kg/injection, schedule: Q04DX003 (ip), vehicle: Klucel (hydroxypropylcellulose) (HPC)
[21] = dose: 100.0 mg/kg/injection, schedule: Q04DX003 (ip), vehicle: other
[22] = dose: 200.0 mg/kg/injection, schedule: Q04DX003 (ip), vehicle: other
[23] = dose: 400.0 mg/kg/injection, schedule: Q04DX003 (ip), vehicle: other

Measured: T/C

C=CP(c1ccccc1)c1ccccc1
inactive: dose: 100.0 mg/kg/injection, schedule: Q01DX009 (ip), vehicle: saline sonified 103 % of control | dose: 200.0 mg/kg/injection, schedule: Q01DX009 (ip), vehicle: saline sonified 110 % of control

CCn1c(O)c(C=N)c(=O)n(CC)c1=O
inactive: [1] 95 % of control | [2] 106 % of control | [3] 93 % of control | [4] 113 % of control

O=C(O)/C(=C(/Cc1ccccc1)C(=O)c1ccccc1)c1ccccc1
inactive: dose: 50.0 mg/kg/injection, schedule: Q01DX009 (ip), vehicle: saline with Tween-80 98 % of control | dose: 100.0 mg/kg/injection, schedule: Q01DX009 (ip), vehicle: saline with Tween-80 88 % of control | dose: 200.0 mg/kg/injection, schedule: Q01DX009 (ip), vehicle: saline with Tween-80 91 % of control

C=C(C)C1CCC2(C=O)CCC3(C)C(CCC4C5(C)CCC(O)C(C)(C)C5CCC43C)C12 (stereo not given)
inactive: dose: 18.75 mg/kg/injection, schedule: Q01DX009 (ip), vehicle: Klucel (hydroxypropylcellulose) (HPC) 100 % of control | dose: 37.5 mg/kg/injection, schedule: Q01DX009 (ip), vehicle: Klucel (hydroxypropylcellulose) (HPC) 93 % of control | dose: 75.0 mg/kg/injection, schedule: Q01DX009 (ip), vehicle: Klucel (hydroxypropylcellulose) (HPC) 89 % of control

C[S+](C)CC(=O)c1ccccc1
inactive: [2] 95 % of control | [3] 104 % of control

CC(=O)Nc1nc(C)c(CCCN(c2ccccc2)S(=O)(=O)c2ccc(N)cc2)c(=O)[nH]1
inactive: [5] 88 % of control

CCCCCCNC1=C(C)C(=O)C(NCCCCCC)=C(C)C1=O
inactive: [6] 104 % of control | [7] 104 % of control | [8] 93 % of control

Cc1ccc(C)c(N(c2ccccc2N)S(C)(=O)=O)c1
inactive: [9] 95 % of control | [6] 95 % of control | [7] 101 % of control | [8] 90 % of control

CC(C)(NC(=O)OCc1ccccc1)C(=O)O
inactive: dose: 100.0 mg/kg/injection, schedule: Q04DX003 (ip), vehicle: saline with Tween-80 98 % of control | dose: 200.0 mg/kg/injection, schedule: Q04DX003 (ip), vehicle: saline with Tween-80 95 % of control | dose: 400.0 mg/kg/injection, schedule: Q04DX003 (ip), vehicle: saline with Tween-80 101 % of control

CC(=O)c1ccncc1
inactive: [9] 94 % of control | [6] 89 % of control | [7] 94 % of control | [8] 94 % of control

CCCCCCCCCCCC[n+]1ccc(C(N)=O)cc1
inactive: dose: 12.5 mg/kg/injection, schedule: Q01DX001 (ip), vehicle: saline 91 % of control | [10] 96 % of control | dose: 25.0 mg/kg/injection, schedule: Q01DX001 (ip), vehicle: saline 100 % of control | [11] 87 % of control | [9] 86 % of control | [12] 94 % of control

CC(=O)OCC(COC(C)=O)=C1N=C(c2ccccc2)OC1=O
inactive: [13] 103 % of control | [14] 95 % of control | [15] 106 % of control | [16] 95 % of control | [17] 107 % of control | [18] 97 % of control

O=C(c1ccc2ccccc2c1)c1cccc(F)c1C(=O)O (tested in a mixture with another compound)
inactive: dose: 75.0 mg/kg/injection, schedule: Q01DX001 (ip), vehicle: carboxymethylcellulose (CMC) 95 % of control | dose: 150.0 mg/kg/injection, schedule: Q01DX001 (ip), vehicle: carboxymethylcellulose (CMC) 90 % of control

CCOc1ccn(CC(=O)N2CCC3(CC2)SSC2(CCN(C(=O)Cn4ccc(OCC)nc4=O)CC2)S3)c(=O)n1
inactive: [2] 90 % of control | [3] 92 % of control | [4] 95 % of control

CN1CN(c2ccccc2)C2(CCN(CCCCCCC#N)CC2)C1=O
inactive: [19] 102 % of control | [20] 94 % of control | [16] 90 % of control | [18] 97 % of control

CCCCCCC/C=N\N=C(N)N
inactive: dose: 15.0 mg/kg/injection, schedule: Q01DX Z (ip), vehicle: carboxymethylcellulose (CMC) 97 % of control | dose: 30.0 mg/kg/injection, schedule: Q01DX Z (ip), vehicle: carboxymethylcellulose (CMC) 97 % of control | dose: 60.0 mg/kg/injection, schedule: Q01DX Z (ip), vehicle: carboxymethylcellulose (CMC) 101 % of control

O=C(CSc1cc(Cl)ccc1Cl)Nc1cccc(Br)c1
inactive: dose: 50.0 mg/kg/injection, schedule: Q04DX003 (ip), vehicle: other 86 % of control | [21] 90 % of control and 92 % of control | [22] 89 % of control | [23] 87 % of control

Cc1cc(Cl)c(Cl)cc1NC(=O)c1c(Br)c(Br)c(Br)c(Br)c1C(=O)O
inactive: [13] 108 % of control | [15] 96 % of control | [17] 95 % of control

CC(=O)CC(=O)N(N=O)c1ccccc1C
inactive: [6] 104 % of control | [7] 95 % of control

[O-][n+]1c(C(Cl)(Cl)Cl)cc(Cl)nc1Cl
inactive: dose: 100.0 mg/kg/injection, schedule: Q01DX001 (ip), vehicle: Klucel (hydroxypropylcellulose) (HPC) 98 % of control | [5] 97 % of control

CC1=C2CCCC(=O)C2(C)CCC1=O (stereo not given)
inactive: dose: 100.0 mg/kg/injection, schedule: Q04DX002 (ip), vehicle: Klucel (hydroxypropylcellulose) (HPC) 107 % of control | dose: 200.0 mg/kg/injection, schedule: Q04DX002 (ip), vehicle: Klucel (hydroxypropylcellulose) (HPC) 96 % of control

CN1C(=O)C(c2ccccc2)(c2ccccc2)C(Br)=C1c1ccccc1
inactive: [9] 107 % of control | [6] 91 % of control | [7] 96 % of control | [8] 102 % of control

COC(=O)C1=NN(c2ccccc2)CC1
inactive: [6] 98 % of control | [21] 88 % of control | [7] 106 % of control | [22] 94 % of control | [8] 90 % of control | [23] 94 % of control

COc1ccc(NC(=O)Nc2cc([N+](=O)[O-])ccc2C)cc1[N+](=O)[O-]
inactive: [13] 98 % of control | [15] 96 % of control | [17] 104 % of control

COc1cc(CCl)cc(OC)c1OC
inactive: [13] 95 % of control | [14] 93 % of control | [15] 90 % of control | [16] 95 % of control | [17] 88 % of control | [18] 97 % of control

CC(CO)(CO)N=Cc1ccccc1O.CC(CO)(CO)N=Cc1ccccc1O.[Co]
inactive: [9] 108 % of control | [6] 97 % of control | [7] 106 % of control

COc1ccc(-c2ccc(CCNC(C)=O)cc2)cc1Cl
inactive: dose: 100.0 mg/kg/injection, schedule: Q01DX001 (ip), vehicle: carboxymethylcellulose (CMC) 94 % of control | dose: 200.0 mg/kg/injection, schedule: Q01DX001 (ip), vehicle: carboxymethylcellulose (CMC) 86 % of control | dose: 400.0 mg/kg/injection, schedule: Q01DX001 (ip), vehicle: carboxymethylcellulose (CMC) 89 % of control

CC12CCC(OC3OC(CO)C(O)C(O)C3O)CC1CCC1C2CCC2(C)C(C3=CC(=O)OC3)CCC12O (stereo not given)
inactive: dose: 10.0 mg/kg/injection, schedule: Q01DX009 (ip), vehicle: saline 101 % of control | dose: 20.0 mg/kg/injection, schedule: Q01DX009 (ip), vehicle: saline 96 % of control | dose: 40.0 mg/kg/injection, schedule: Q01DX009 (ip), vehicle: saline 102 % of control

CCCc1ccccc1NC(=O)NCCCl
inactive: [19] 106 % of control | [20] 101 % of control | [14] 105 % of control and 86 % of control | [16] 89 % of control | [18] 88 % of control

CCCCCCCCCCCCCCCCOc1ccc(C(=O)CC(=O)OC)cc1
inactive: [13] 93 % of control | [21] 94 % of control | [15] 92 % of control | [22] 101 % of control | [17] 92 % of control | [23] 94 % of control

COc1cc(NS(C)(=O)=O)ccc1NS(C)(=O)=O
inactive: [13] 112 % of control | [14] 108 % of control | [15] 108 % of control | [16] 94 % of control | [17] 103 % of control | [18] 100 % of control

CCOC(=O)c1nc2nc(Cl)c(Cl)nc2[nH]1
inactive: [10] 102 % of control | dose: 25.0 mg/kg/injection, schedule: Q01DX009 (ip), vehicle: saline 107 % of control | [11] 100 % of control | dose: 50.0 mg/kg/injection, schedule: Q01DX009 (ip), vehicle: saline 105 % of control | [12] 105 % of control | [1] 96 % of control | [2] 99 % of control | [3] 98 % of control | [4] 96 % of control
